Entries after “also recorded” stand apart in the source; their conditions may differ. Counter-ions that a name gives are not always drawn.
What was measured:
[1] = test system: Mycobacterium smegmatis 607 Sm-R; test: Minimum inhibitory concentration, standard serial dilution method on Heart Infusion agar; type: cell-based; conditions: Mycolicibacterium smegmatis, 607SMR, 16 h
Protocol: (§1) Antibacterial activity of SF-2052 substance of this invention (as the sulfate) to inhibit the growth of various bacteria was estimated according to a standard serial dilution method using Heart Infusion agar as the incubation medium. The incubation was made at a temperature of 37° C. for 16 hours.

[2] = test system: Staphylococcus aureus 209P; test: as above; type: cell-based; conditions: 37° C., 16 hours
Protocol: as §1

[3] = test system: Mycobacterium smegmatis 607 Km-R; test: as above; type: cell-based; conditions: Mycolicibacterium smegmatis, 607KMR, 16 h
Protocol: as §1

Klebsiella pneumonia = test: as above; type: cell-based; conditions: Klebsiella pneumoniae, 37° C., 16 hours
Protocol: as §1

Proteus vulgaris = test: as above; type: cell-based; conditions: 37° C., 16 hours
Protocol: as §1

[4] = test system: Bacillus subtillis PCI-219; test: as above; type: cell-based; conditions: PCI219, 37° C., 16 hours
Protocol: as §1

Pseudomonas aeruginosa = test: as above; type: cell-based; conditions: 37° C., 16 hours
Protocol: as §1

Escherichia coli = test: as above; type: cell-based; conditions: 37° C., 16 hours
Protocol: as §1

Escherichia coli B = test: as above; type: cell-based; conditions: 37° C., 16 hours
Protocol: as §1

Escherichia coli K-12-R = test: as above; type: cell-based; conditions: 16 h
Protocol: as §1

Sarcina lutea = test: as above; type: cell-based; conditions: Micrococcus luteus, 37° C., 16 hours
Protocol: as §1

[5] = Acute toxicity, intravenous injection in mice; type: in vivo; conditions: mouse, in vivo, solution in isotonic aqueous sodium chloride, estimated
Source text: (§2) For determination of acute toxicity of the SF-2052 substance sulfate, this was intravenously injected as its solution in isotonic aqueous solution of sodium chloride into several groups of mice. […] According to this invention, therefore, there is further provided an antibacterial composition comprising as the active ingredient an antibacterially effective amount of at least one of the pharmaceutically acceptable acid-addition salts of the SF-2052 substance, in association with a pharmaceutically acceptable liquid or solid carrier. The content of this active ingredient in this antibacterial composition may be in a range of 5% to 50% by weight of the composition.

mice = test: Acute toxicity, intravenous injection in mice; type: in vivo; conditions: in words
Source text: as §2

Stability = type: physicochemical
Solubility = type: physicochemical; conditions: for solubility in organic solvents: chloroform, ethyl acetate
[6] = test system: gram-negative and gram-positive bacteria; test: Antibacterial activity, summary of Table 1; type: cell-based; conditions: against both gram-negative and gram-positive bacteria
Protocol: as §1

Compound | MIC [1] | MIC [2] | MIC [3] | MIC (Klebsiella pneumonia) | MIC (Proteus vulgaris) | MIC [4] | MIC (Pseudomonas aeruginosa) | MIC (Escherichia coli) | MIC (Escherichia coli B) | MIC (Escherichia coli K-12-R) | MIC (Sarcina lutea) | LD50 [5] | acute toxicity (mice) | stability under acidic to neutral pH conditions (Stability; acidic to neutral pH) | stability under alkaline pH conditions (Stability) | solubility in organic solvents (Solubility; hexane, benzene and ethylether etc.) | solubility in organic solvents (Solubility; benzene and ethylether) | solubility in methanol (Solubility; methanol) | solubility in water (Solubility; water) | antibacterial activity [6]
COC1C(O)C(N)C(OC2OC(C(C)N)CCC2N)C(O)C1N(C)C(=O)CNC=N (stereo not drawn) [SF-2052 substance sulfate] | 1.56 µg/mL | 3.12 µg/mL | 100 µg/mL | 3.12 µg/mL | 1.56 µg/mL | 1.56 µg/mL | 100 µg/mL | 12.5 µg/mL | 6.25 µg/mL | 3.12 µg/mL | 0.78 µg/mL | 350 mg/kg | substantially non-toxic | – | – | – | – | – | – | –
COC1C(O)C(N)C(OC2OC(C(C)N)CCC2N)C(O)C1N(C)C(=O)CNC=N (stereo not drawn) [SF-2052 substance hydrochloride] | – | – | – | – | – | – | – | – | – | – | – | – | – | Relatively stable; also recorded: substantially stable | instable | substantially insoluble | insoluble | soluble in methanol | Easily soluble in water; also recorded: readily soluble in water | –
COC1C(O)C(N)C(OC2OC(C(C)N)CCC2N)C(O)C1N(C)C(=O)CNC=N (stereo not drawn) [SF-2052 substance] | – | – | – | – | – | – | – | – | – | – | – | – | – | – | very instable; also recorded: instable | – | – | – | – | high antibacterial activity against both gram-negative and gram-positive bacteria

Reference: patent US4242327A, “Antibiotic SF-2052 substance and production and use thereof” (Meiji Seika Kaisha, Ltd., priority 1978, dated 1980)
